From US12570657B2, “Mesylate salts of heterocyclic cytokinins, compositions containing these derivatives and use thereof” (UNIVERZITA PALACKEHO V OLOMOUCI, priority 2020, dated 2026)
Like-named read-outs stand apart in the source and are kept apart here.

Key:
[1] = test system: cytokinin-dependent tobacco callus; assay: Tobacco callus biotest (stimulation of plant cell division); assay type: cell-based, Nicotiana tabacum L. cv. Wisconsin 38; details: for activity (%) [10^−5 mol · l^−1 BAP = 100%]: callus growth at concentration with highest activity, 10^−5 M BAP = 100%
Procedure: Stimulation effect of the cytokinin mesylates was tested in tobacco callus biotest using cytokinin dependent tobacco callus. Cytokinin-dependent tobacco callus Nicotiana tabacum L. cv. […] Subcultivation was carried out every three weeks. Fourteen days before the bioassay, the callus tissue was transferred to the media without BAP. Biological activity was determined from the increase in fresh callus weight after four weeks of cultivation. Five replicates were prepared for each cytokinin concentration and the entire test was repeated twice. […] Relative activity of the compound at this concentration was calculated (Tab. 15). The activity obtained for 10^−5 M 6-benzylaminopurine (BAP) was postulated as 100%. The cytokinin bases to be tested were dissolved in dimethylsulfoxide (DMSO) and the solution brought up to 10^−3 M with distilled water. The mesylate salts were dissolved directly in distilled water.

[2] = test system: K562 (chronic myeloid leukemia); assay: In vitro cytotoxicity, Calcein AM assay, K-562; assay type: cell-based; details: 3-day Calcein-AM assay
Description: (§1) Because toxic compounds adversely affect cell metabolic processes, many standard cytotoxicity assays are based on measuring the rate of metabolism of various artificial substrates. The resulting product is then quantified, for example, by spectrometry. Assays can be easily modified for use in 96-well plates, A microtiter assay based on the quantification of Calcein AM metabolism was used to evaluate the cytotoxicity of cytokinins, for example meta-topolin, ortho-topolin, kinetin, BAP or its mesylate salts, but also a number of other cytokinin mesylate derivatives according to the invention. The test is widely used in drug screening programs and in chemosensitivity testing. In living cells, Calcein AM is enzymatically hydrolyzed and the accumulation of the resulting calcein is manifested by green fluorescence. […] These cells were maintained in standard DMEM or RPMI medium (Sigma, MO, USA) supplemented with heat-inactivated fetal bovine serum (10%) with 2 mM L-glutamine and penicillin-streptomycin (1%) under standard cell culture conditions (37° C., 5% CO2 in a humid environment) and subcultured two or three times a week using a standard trypsinization procedure. Approximately 10,000 cells in 80 μl of medium were seeded in a 96-well microtiter plate. After 12 hours of incubation, the compounds to be tested were added in 20 μl aliquots. Control cultures were treated with DMSO alone. […] After 72 hours of incubation, Calcein AM solution (Molecular Probes) was added to a final concentration of 1 μg/ml and the cells were incubated for another hour.
(§2) Cytoxicity of compounds was tested on panel of cell lines of different histogenetic and species origin.

[3] = test system: CEM (T-lymphoblastic leukemia); assay: In vitro cytotoxicity, Calcein AM assay, CEM; assay type: cell-based; details: 3-day Calcein-AM assay
Description: as §1, §2

[4] = test system: HOS (human osteosarcoma); assay: In vitro cytotoxicity, Calcein AM assay, HOS; assay type: cell-based; details: Homo sapiens, 72 h, 3-day Calcein-AM assay
Description: as §1, §2

[5] = test system: MCF-7 (breast adenocarcinoma); assay: In vitro cytotoxicity, Calcein AM assay, MCF7; assay type: cell-based; details: 3-day Calcein-AM assay
Description: as §1, §2

[6] = test system: HL-60 (promyelocytic, leukemia); assay: In vitro cytotoxicity, Calcein AM assay, HL60; assay type: cell-based; details: 3-day Calcein-AM assay
Description: as §1, §2

[7] = test system: winter wheat leaf segments; assay: Senescence bioassay: retention of chlorophyll in excised winter wheat leaf tips; assay type: in vivo, Triticum aestivum cv. Hereward; details: for activity (%) [10^−4 mol · l^−1 BAP = 100%]: chlorophyll retention at concentration with highest activity, 10^−4 M BAP = 100%
Procedure: Seeds of winter wheat, Triticum aestivum cv. Hereward, were washed under running water for 24 hours and then sown on vermiculite soaked with Knop's solution. They were placed in a growth chamber at 25° C. with a 16/8 h light/dark period at 50 μmol·m^−2·s^−1. After 7 days, the first leaf was fully developed and the second leaf had started to grow. A tip section of the first leaf, approximately 35 mm long, was removed from 5 seedlings and trimmed slightly to a combined weight of 100 mg. The basal ends of the five leaf tips were placed in the wells of a microtiter polystyrene plate containing 150 μl of each tested compound solution. The entire plate was inserted into a plastic box lined with paper tissues soaked in distilled water to prevent leaf sections from drying out. After 96 h incubation in the dark at 25° C., the leaves were removed and chlorophyll extracted by heating at 80° C. for 10 min in 5 ml of 80% ethanol (v/v). The sample volume was then restored to 5 ml by the addition of 80% ethanol (v/v). The absorbance of the extract was recorded at 665 nm. In addition, chlorophyll extracts from fresh leaves and leaf tips incubated in deionised water were measured. […] Relative activity of the compound at this concentration was calculated (Tab. 3). The activity obtained for 10^−4 M 6-benzylaminopurine (BAP) was postulated as 100%. The values shown are means of five replicates and the whole experiment was repeated twice. The tested cytokinin bases were dissolved in dimethylsulfoxide (DMSO) and the solution brought up to 10^−3 M with distilled water. Cytokinin mesylate salts which are more water-soluble (BAP mesylate, meta-topolin mesylate and kinetin mesylate) could be directly dissolved to form a 10^−3 M solution in distilled water.

[8] = Aqueous solubility: concentration of saturated solution by HPLC; assay type: physicochemical; details: thermodynamic from solid; saturated solution in water, cytokinin mesylate; read-out: c of CK mesylate
Procedure: Aqueous solubility was measured using the following protocol. Supersaturated solution of meta-topolin mesylate salt was prepared. The solutions were filtered off from visible undissolved particles of the salt to obtain homogenic saturated solution. Saturated solution was diluted 1:10 000 and measured using HPLC Alliance Waters 2690 with C18 Symmetry column with the diameter 2.1 mm and 150 mm length with a porosity of 5 μm. The sample was dissolved in the mobile phase (MeOH: HCOONH4-1:9). The sample was washed with a methanol gradient (10-90%, 35 min) at pH 4 and a flow rate of 0.3 ml/min. The absorbances of the components were detected in the UV region at 210-400 nm. The peak area of meta-topolin mesylate salt was 595 027. The standard was measured as shown in the Table 9 below, Obtained peak area was compared to area peaks measured at certain concentration and the final concentration of saturated solution was determined
Solubility of other cytokinin (CK) mesylates was also determined by this method and the concentrations of saturated solutions are given below in Table 10: […]

[9] = test system: rose explants; assay: In vitro and post vitro multiplication and rooting of rose; assay type: in vivo, Rosa multiflora
Procedure: The aim of this experiment was to test whether the new compounds are of practical use in tissue culture practice. The multiplication rate was investigated and the post vitro effects on rooting were examined Rosa hybrida (pot rose cultivar) was cultured in 350 ml vessels with a screw on polycarbonate lid. Each culture vessel contained 100 ml autoclaved medium (120° C., 20 min). The cultures were maintained at 23±2° C. under a 16 h photoperiod at 40 μM·m^−2 s^−1 PAR. The basal medium (BMR) contained Murashige and Skoog (1962) macroelements, microelements and vitamins, 95 μM NaFeEDTA, 555 μM myo-inositol, 111 mM sucrose, 1.332 mM glycine, 684 μM L-glutamine and 7 g/l agar. This medium was supplemented with 10 μM BAP, mT, or 3MeOBAP, or the corresponding mesylate salts. The control medium didn't contain any cytokinin After a culture period of 8 weeks, the number of induced shoots per explant was determined, as well as root number/explant and total root length/explant. The roots were removed and the explants (shoot clusters) were planted in unfertilised peat. After four weeks of acclimatising in a fog unit, root number and root length was determined. As expected, a cytokinin free medium yielded almost no new shoots. The original shoot explant grew out as a good quality single shoot that rooted very well. […] Explants growing on cytokininin mesylates were characterized by a high multiplication index (a large number of new shoots) and were more rooted in comparison with free bases. The use of cytokinin mesylates led to an increase in all monitored parameters in plant culture compared to free cytokinin bases.

[10] = test system: skin fibroblasts BJ; assay: Cytotoxicity for non-cancer cells, resazurine reduction assay, BJ
Procedure: (§3) It is used for viability testing of both bacterial and eukaryotic cells. […] Cultivation medium was DMEM with 10% FBS. Before the experiment, the cells were subcultured for 2 weeks. For the cytotoxicity evaluation, the cells were trypsinized and pipetted into 96 well plates (5000 cells per well in 80 microliters). After 24 hours, 5× concentrated solutions of the tested compounds in the medium were added. […] IC50 values were calculated from dose response curves using drc library for R programming environment.

[11] = test system: retinal epitelium cells ARPE-19; assay: Cytotoxicity for non-cancer cells, resazurine reduction assay, ARPE-19
Procedure: as §3

[12] = test system: keratinocytes HaCaT; assay: Cytotoxicity for non-cancer cells, resazurine reduction assay, HaCaT
Procedure: as §3

[13] = Ex vitro, after four weeks of acclimatising in peat
[14] = In vitro, 10 μM cytokinin, 8 weeks
[15] = resazurin, 72 hour treatment, ARPE-19
[16] = resazurin, 72 hour treatment, HaCaT
[17] = resazurin, 72 hour treatment, BJ

Row | Structure (SMILES) | activity (%) [10^−5 mol · l^−1 BAP = 100%] [1] | IC50 ([2]; Homo sapiens, K562, 72 h) | IC50 ([3]; 72 h) | IC50 ([5]; Homo sapiens, MCF7, 72 h) | activity (%) [10^−4 mol · l^−1 BAP = 100%] [7] | solubility thermodynamic [8] | Cytotoxicity for Fibroblasts (GI20) ARPE-19 [11, 15] | Cytotoxicity for Fibroblasts (GI20) HaCaT [12, 16] | IC50 [3] | IC50 [5] | also measured
1 | CC(CO)CCNc1ncnc2nc[nH]c12 (racemic) [Dihydrozeatin (DHZ), dihydrozeatin] | 78% | > 167 µM | > 167 µM | > 167 µM | 81% | – | – | – | – | – | IC50 [4]: > 167 µM; IC50 ([6]; Homo sapiens, HL-60, 72 h): > 167 µM
2 | COc1ccccc1CNc1ncnc2nc[nH]c12 [2MeOBAP, 6-(2-methoxybenzylamino)purine] | 79% | 116 µM | 63.4 µM | 153 µM | – | – | – | – | – | – | IC50 [4]: > 167 µM; IC50 ([6]; Homo sapiens, HL-60, 72 h): > 167 µM
3 | COc1cccc(CNc2ncnc3nc[nH]c23)c1.CS(=O)(=O)O [3MeOBAP mesylate, 6-(3-methoxybenzylamino)purine mesylate] | 83% | – | – | – | – | 47.5 mM | – | – | – | – | activity (%) [10^−4 mol · l^−1 BAP = 100%] ([7]; listed as 3-MeoBAP mesylate, mesylate): 125%; activity (%) [10^−4 mol · l^−1 BAP = 100%] ([7]; mesylate): 184%; Number of roots per plant [9, 13]: 1.9; Overall length of plant (cm) [9, 13]: 4.5 cm; Number of new shoots per explant [9, 14]: 4.5; Number of roots per explant [9, 14]: 0.0; Overall length of explant (cm) [9, 14]: 0.0 cm; number of flowers per explant [9, 14]: 0.02
4 | CS(=O)(=O)O.c1coc(CNc2ncnc3nc[nH]c23)c1 [Kinetin mesylate, 6-furfurylaminopurine mesylate] | – | > 167 µM | > 167 µM | > 167 µM | 110.9% | 92.6 mM | >100 μM | >100 µM | – | – | Cytotoxicity for Fibroblasts (GI20) BJ ([10]; human, 72 h): >100 µM
5 | CC(C)=CCNc1ncnc2[nH]cnc12.CS(=O)(=O)O [iP mesylate, N-3-(Methylbut-2-En-1-Yl)-9H-Purin-6-Amin Methanesulphonate] | 95% | – | – | – | 95% | – | – | – | 128 µM | > 167 µM | concentration with highest activity ([1]; tobacco callus fresh weight increase, four weeks): 10^−6 mol · l^−1; IC50 [2]: 162 µM; Cytotoxicity for Fibroblasts (GI20) BJ [10]: 149.3 µM; Cytotoxicity for Fibroblasts (GI20) ARPE-19 [11]: >100 μM; concentration with highest activity ([7]; chlorophyll retention, excised wheat leaf tips, 96 h dark): 10^−4 mol · l^−1; Cytotoxicity for Fibroblasts (GI20) HaCaT [12]: >100 µM
6 | CS(=O)(=O)O.Oc1ccccc1CNc1ncnc2nc[nH]c12 [oT mesylate, 6-(2-hydroxybenzylamino)purine mesylate] | 87% | – | – | – | 69% | 82.3 mM | >100 μM | >100 µM | – | – | IC50 ([3]; mesylate): 89.4 µM; Cytotoxicity for Fibroblasts (GI20) BJ ([10]; human, 72 h): >100 µM
7 | C/C(=C\CNc1ncnc2[nH]cnc12)CO.CS(=O)(=O)O [tZ mesylate, (E)-4-(9H-Purin-6-Ylamino)-2-Methybut-2-En-1-ol)Methanesulphonate] | 111% | – | – | – | 114% | – | >100 μM | >100 µM | > 167 µM | > 167 µM | IC50 [6]: > 167 µM; Cytotoxicity for Fibroblasts (GI20) BJ [10, 17]: >100 µM
8 | C/C(=C\CNc1ncnc2nc[nH]c12)CO [trans-zeatin (tZ), trans-zeatin] | 109% | – | – | – | 110% | – | >100 μM | >100 µM | > 167 µM | > 167 µM | IC50 [6]: > 167 µM; Cytotoxicity for Fibroblasts (GI20) BJ [10, 17]: >100 µM
